Laboratory results reported in ChEMBL document CHEMBL1909046, “DrugMatrix in vitro pharmacology data”.

Assays:
[1] = biological target: T1, Alpha-1A adrenergic receptor (Rattus norvegicus, UniProt P43140); test: DRUGMATRIX: Alpha-1A adrenergic receptor radioligand binding (ligand: prazosin); type: cell membranes, Wistar, Submaxillary gland, Membrane; settings: Not Active = under 50% inhibition at 10 µM
T1 sequence (P43140 whole entry): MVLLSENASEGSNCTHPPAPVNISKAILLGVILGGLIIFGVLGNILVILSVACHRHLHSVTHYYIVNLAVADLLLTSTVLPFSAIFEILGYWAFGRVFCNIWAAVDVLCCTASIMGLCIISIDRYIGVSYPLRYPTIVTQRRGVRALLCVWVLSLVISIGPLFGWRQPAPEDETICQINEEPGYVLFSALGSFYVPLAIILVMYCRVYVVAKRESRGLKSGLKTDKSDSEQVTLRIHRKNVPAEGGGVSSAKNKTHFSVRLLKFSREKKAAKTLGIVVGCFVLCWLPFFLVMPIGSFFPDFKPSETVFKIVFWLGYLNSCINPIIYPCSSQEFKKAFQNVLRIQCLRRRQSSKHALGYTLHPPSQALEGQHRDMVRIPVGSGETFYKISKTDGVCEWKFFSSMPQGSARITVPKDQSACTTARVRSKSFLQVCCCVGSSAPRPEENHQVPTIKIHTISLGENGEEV

[2] = biological target: T2, B2 bradykinin receptor (Homo sapiens, UniProt P30411); type: cell membranes, Membrane; settings: chem-1; also: in other assays of this panel Not Active means under 50% inhibition at 10 µM
T2 sequence (P30411 whole entry): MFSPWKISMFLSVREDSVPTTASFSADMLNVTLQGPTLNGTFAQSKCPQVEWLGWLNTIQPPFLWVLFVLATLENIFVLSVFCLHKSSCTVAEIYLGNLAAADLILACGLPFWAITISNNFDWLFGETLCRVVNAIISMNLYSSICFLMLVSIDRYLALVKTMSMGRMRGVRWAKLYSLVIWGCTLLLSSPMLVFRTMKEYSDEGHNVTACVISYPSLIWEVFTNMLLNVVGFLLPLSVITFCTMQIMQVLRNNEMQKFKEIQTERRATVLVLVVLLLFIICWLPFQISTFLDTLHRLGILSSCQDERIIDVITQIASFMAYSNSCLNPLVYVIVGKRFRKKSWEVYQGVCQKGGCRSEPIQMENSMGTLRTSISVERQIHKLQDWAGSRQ

[3] = biological target: 5-hydroxytryptamine receptor 2B (Homo sapiens, UniProt P41595); type: cell membranes, CHO-K1, Membrane; settings: cho-k1; also: in other assays of this panel Not Active means under 50% inhibition at 10 µM
Sequence of 5-hydroxytryptamine receptor 2B (P41595 whole entry): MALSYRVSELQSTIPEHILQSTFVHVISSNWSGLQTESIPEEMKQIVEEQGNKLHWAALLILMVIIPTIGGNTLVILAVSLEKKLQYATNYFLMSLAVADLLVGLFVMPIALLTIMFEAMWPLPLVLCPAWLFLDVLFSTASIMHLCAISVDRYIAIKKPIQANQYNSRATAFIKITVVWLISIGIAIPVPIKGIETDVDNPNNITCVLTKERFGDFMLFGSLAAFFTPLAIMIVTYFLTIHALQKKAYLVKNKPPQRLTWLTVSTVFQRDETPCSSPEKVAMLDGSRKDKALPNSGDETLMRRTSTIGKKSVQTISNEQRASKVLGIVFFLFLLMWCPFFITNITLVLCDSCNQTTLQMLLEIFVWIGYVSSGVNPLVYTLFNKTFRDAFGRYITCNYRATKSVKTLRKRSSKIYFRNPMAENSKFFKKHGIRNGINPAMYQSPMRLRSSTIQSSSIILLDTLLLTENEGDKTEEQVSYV

[4] = DRUGMATRIX: Serotonin (5-Hydroxytryptamine) 5-HT3 radioligand binding (ligand: [3H] GR-65630); type: cell membranes, Membrane; settings: hek293; Not Active = under 50% inhibition at 10 µM
[5] = biological target: Prostaglandin G/H synthase 1 (Homo sapiens, UniProt P23219); test: biochemical; type: tissue-based, Platelet; settings: platelet;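 also: inhibition of COX-1 enzyme activity, with arachidonic acid supplied as substrate; in other assays of this panel Not Active means under 50% inhibition at 10 µM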
Sequence of Prostaglandin G/H synthase 1 (P23219 whole entry): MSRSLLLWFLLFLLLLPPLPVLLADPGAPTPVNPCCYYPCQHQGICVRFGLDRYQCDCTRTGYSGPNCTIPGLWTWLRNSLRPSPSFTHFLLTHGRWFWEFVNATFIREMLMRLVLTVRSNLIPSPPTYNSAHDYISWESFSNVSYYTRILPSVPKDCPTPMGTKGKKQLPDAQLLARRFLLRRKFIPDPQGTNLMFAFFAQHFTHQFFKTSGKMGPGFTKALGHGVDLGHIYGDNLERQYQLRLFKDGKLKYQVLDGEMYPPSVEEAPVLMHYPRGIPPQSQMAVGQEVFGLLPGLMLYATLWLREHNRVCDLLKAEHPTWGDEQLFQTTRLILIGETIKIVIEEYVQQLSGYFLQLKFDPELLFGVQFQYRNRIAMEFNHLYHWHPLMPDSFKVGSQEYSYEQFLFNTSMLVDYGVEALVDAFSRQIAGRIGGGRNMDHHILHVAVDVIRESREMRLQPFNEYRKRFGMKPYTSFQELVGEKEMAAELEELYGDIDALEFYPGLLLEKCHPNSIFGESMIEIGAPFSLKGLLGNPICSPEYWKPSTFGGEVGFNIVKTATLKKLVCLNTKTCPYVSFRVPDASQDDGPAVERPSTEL

[6] = DRUGMATRIX: GABAA, Chloride Channel, TBOB radioligand binding (ligand: [3H] TBOB); type: cell membranes, Rattus norvegicus, Wistar, Cerebral cortex, Membrane; settings: Not Active = under 50% inhibition at 10 µM
[7] = biological target: T3, Amine oxidase [flavin-containing] A (Homo sapiens, UniProt P21397); test: DRUGMATRIX: Monoamine Oxidase MAO-A enzyme inhibition (substrate: Kynuramine); design: species or system BTI-TN-5B1-4; settings: bti-tn-5b1-4; Not Active = under 50% inhibition at 10 µM
T3 sequence (P21397 whole entry): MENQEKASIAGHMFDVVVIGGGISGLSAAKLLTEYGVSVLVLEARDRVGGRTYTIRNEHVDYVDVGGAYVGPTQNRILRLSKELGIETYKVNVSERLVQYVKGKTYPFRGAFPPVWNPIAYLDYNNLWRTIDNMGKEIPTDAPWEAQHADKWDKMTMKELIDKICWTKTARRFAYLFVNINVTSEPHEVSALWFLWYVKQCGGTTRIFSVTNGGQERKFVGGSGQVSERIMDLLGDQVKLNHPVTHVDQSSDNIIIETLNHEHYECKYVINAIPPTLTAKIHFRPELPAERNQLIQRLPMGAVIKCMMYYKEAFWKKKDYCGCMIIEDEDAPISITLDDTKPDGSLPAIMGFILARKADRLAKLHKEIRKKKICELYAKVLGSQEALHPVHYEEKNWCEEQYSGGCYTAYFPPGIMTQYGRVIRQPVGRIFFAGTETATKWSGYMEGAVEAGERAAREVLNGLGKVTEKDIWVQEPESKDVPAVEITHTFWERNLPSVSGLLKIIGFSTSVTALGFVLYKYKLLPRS

[8] = biological target: T4, Neuropeptide Y receptor type 2 (Homo sapiens, UniProt P49146); type: cell membranes, Membrane; settings: kan-ts; also: in other assays of this panel Not Active means under 50% inhibition at 10 µM
T4 sequence (P49146 whole entry): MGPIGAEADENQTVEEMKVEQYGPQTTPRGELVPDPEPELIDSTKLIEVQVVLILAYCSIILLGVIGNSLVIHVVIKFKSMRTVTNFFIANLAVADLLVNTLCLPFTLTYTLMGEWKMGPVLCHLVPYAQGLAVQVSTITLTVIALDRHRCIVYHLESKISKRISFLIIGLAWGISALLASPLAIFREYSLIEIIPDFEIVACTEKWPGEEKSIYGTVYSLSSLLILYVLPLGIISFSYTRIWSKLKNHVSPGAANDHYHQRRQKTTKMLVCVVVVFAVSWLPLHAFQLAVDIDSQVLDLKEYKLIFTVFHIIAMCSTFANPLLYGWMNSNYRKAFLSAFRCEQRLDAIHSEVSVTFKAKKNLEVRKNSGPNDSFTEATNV

[9] = DRUGMATRIX: Phorbol Ester radioligand binding (ligand: [3H] PDBu); type: cell membranes, Mus musculus, ICR, Brain, Membrane; settings: Not Active = under 50% inhibition at 10 µM
[10] = biological target: T5, Caspase-1 (Homo sapiens, UniProt P29466); design: species or system Escherichia coli
T5 sequence (P29466 whole entry): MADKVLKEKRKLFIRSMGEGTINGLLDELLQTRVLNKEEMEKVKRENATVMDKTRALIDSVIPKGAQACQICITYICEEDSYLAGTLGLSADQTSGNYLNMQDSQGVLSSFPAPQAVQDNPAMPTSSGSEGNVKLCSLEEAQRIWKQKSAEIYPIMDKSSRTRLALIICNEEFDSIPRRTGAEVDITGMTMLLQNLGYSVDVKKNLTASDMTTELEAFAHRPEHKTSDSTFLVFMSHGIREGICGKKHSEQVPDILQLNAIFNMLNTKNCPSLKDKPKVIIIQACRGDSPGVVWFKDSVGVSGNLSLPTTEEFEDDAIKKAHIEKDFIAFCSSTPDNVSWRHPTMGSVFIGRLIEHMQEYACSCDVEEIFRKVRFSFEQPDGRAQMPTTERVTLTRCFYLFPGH

[11] = biological target: Mitogen-activated protein kinase 14 (Homo sapiens, UniProt Q16539); design: species or system Escherichia coli
Sequence of Mitogen-activated protein kinase 14 (Q16539 whole entry): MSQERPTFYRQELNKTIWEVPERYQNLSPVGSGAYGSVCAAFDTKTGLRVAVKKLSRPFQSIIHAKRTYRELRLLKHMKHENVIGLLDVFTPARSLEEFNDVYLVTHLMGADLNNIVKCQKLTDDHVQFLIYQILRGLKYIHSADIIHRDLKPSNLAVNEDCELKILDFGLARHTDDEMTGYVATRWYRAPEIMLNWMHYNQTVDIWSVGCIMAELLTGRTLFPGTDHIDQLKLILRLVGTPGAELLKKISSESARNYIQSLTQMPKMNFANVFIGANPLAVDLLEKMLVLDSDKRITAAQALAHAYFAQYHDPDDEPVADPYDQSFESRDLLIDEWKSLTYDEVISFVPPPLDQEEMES

[12] = biological target: Tyrosine-protein kinase Lck (Homo sapiens, UniProt P06239); test: DRUGMATRIX: Protein Tyrosine Kinase, LCK enzyme inhibition (substrate: Poly(Glu:Tyr)); type: cell-based, Insect cells; settings: insect cells; Not Active = under 50% inhibition at 10 µM
Sequence of Tyrosine-protein kinase Lck (P06239 whole entry): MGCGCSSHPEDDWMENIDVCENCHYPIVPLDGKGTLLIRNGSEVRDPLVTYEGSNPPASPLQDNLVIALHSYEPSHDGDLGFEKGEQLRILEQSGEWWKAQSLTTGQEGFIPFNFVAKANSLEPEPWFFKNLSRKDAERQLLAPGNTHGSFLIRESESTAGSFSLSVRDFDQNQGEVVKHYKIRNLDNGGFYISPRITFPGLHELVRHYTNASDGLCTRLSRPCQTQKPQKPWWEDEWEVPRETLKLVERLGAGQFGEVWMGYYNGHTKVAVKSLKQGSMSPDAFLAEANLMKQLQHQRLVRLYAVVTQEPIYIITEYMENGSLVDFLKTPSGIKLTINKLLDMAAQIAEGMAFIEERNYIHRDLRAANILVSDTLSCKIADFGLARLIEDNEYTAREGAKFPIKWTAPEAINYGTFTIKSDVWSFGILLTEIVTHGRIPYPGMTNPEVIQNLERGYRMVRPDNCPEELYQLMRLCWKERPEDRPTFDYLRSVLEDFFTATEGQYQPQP

[13] = biological target: Cytochrome P450 2C19 (Homo sapiens, UniProt P33261); settings: bti-tn-5b1-4; also: in other assays of this panel Not Active means under 50% inhibition at 10 µM
Sequence of Cytochrome P450 2C19 (P33261 whole entry): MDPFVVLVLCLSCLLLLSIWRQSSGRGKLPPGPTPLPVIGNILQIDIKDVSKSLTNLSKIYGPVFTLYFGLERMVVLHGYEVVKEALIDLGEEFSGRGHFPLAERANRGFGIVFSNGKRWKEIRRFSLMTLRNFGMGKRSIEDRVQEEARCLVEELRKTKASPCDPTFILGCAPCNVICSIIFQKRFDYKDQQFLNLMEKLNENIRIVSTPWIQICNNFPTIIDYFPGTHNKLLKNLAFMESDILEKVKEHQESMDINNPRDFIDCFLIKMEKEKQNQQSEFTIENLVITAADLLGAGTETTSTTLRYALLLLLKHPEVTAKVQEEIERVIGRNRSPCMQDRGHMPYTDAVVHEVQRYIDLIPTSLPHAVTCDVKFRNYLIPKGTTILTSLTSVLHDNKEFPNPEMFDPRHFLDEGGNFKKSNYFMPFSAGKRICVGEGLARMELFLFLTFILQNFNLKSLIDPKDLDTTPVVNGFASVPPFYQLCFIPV

CC1(C)[C@@H](O[C@H]2O[C@H](C(=O)O)[C@@H](O)[C@H](O)[C@H]2O[C@@H]2O[C@H](C(=O)O)[C@@H](O)[C@H](O)[C@H]2O)CC[C@]2(C)[C@H]3C(=O)C=C4[C@@H]5C[C@@](C)(C(=O)O)CC[C@]5(C)CC[C@@]4(C)[C@]3(C)CC[C@@H]12 [GLYCYRRHIZIN]
Not Active: IC50 [1] | IC50 [2] | IC50 [3] | IC50 [4] | Ki [4] | IC50 [5] | IC50 [6] | Ki [6] | IC50 [7] | IC50 [8] | IC50 [9] | Ki [9] | IC50 [10] | IC50 [11] | IC50 [12] | IC50 [13] | Ki [13]

COC1=CC(=O)C[C@@H](C)[C@]12Oc1c(Cl)c(OC)cc(OC)c1C2=O [GRISEOFULVIN]
Not Active: IC50 [1] | IC50 [2] | IC50 [3] | IC50 [4] | Ki [4] | IC50 [5] | IC50 [6] | Ki [6] | IC50 [7] | IC50 [8] | IC50 [9] | Ki [9] | IC50 [10] | IC50 [11] | IC50 [12] | IC50 [13] | Ki [13]

C/C=C1\[C@H]2C=C(C)C[C@]1(N)c1ccc(=O)[nH]c1C2 [HUPERZINE A]
Not Active: IC50 [1] | IC50 [2] | IC50 [3] | IC50 [4] | Ki [4] | IC50 [5] | IC50 [6] | Ki [6] | IC50 [7] | IC50 [8] | IC50 [9] | Ki [9] | IC50 [10] | IC50 [11] | IC50 [12] | IC50 [13] | Ki [13]

NS(=O)(=O)c1cc2c(cc1Cl)NCNS2(=O)=O [HYDROCHLOROTHIAZIDE]
Not Active: IC50 [1] | IC50 [2] | IC50 [3] | IC50 [4] | Ki [4] | IC50 [5] | IC50 [6] | Ki [6] | IC50 [7] | IC50 [8] | IC50 [9] | Ki [9] | IC50 [10] | IC50 [11] | IC50 [12] | IC50 [13] | Ki [13]

CN1CCC[C@H]1c1cccnc1 [NICOTINE]
Not Active: IC50 [1] | IC50 [2] | IC50 [3] | IC50 [4] | Ki [4] | IC50 [5] | IC50 [6] | Ki [6] | IC50 [7] | IC50 [8] | IC50 [9] | Ki [9] | IC50 [10] | IC50 [11] | IC50 [12] | IC50 [13] | Ki [13]

O=C1CN=C(c2ccccc2)c2cc([N+](=O)[O-])ccc2N1 [NITRAZEPAM]
Not Active: IC50 [1] | IC50 [2] | IC50 [3] | IC50 [4] | Ki [4] | IC50 [5] | IC50 [6] | Ki [6] | IC50 [7] | IC50 [8] | IC50 [9] | Ki [9] | IC50 [10] | IC50 [11] | IC50 [12] | IC50 [13] | Ki [13]

CC1COc2c(N3CCN(C)CC3)c(F)cc3c(=O)c(C(=O)O)cn1c23 (stereo unspecified) [OFLOXACIN]
Not Active: IC50 [1] | IC50 [2] | IC50 [3] | IC50 [4] | Ki [4] | IC50 [5] | IC50 [6] | Ki [6] | IC50 [7] | IC50 [8] | IC50 [9] | Ki [9] | IC50 [10] | IC50 [11] | IC50 [12] | IC50 [13] | Ki [13]

Oc1cccc2cccnc12 [OXYQUINOLINE]
Not Active: IC50 [1] | IC50 [2] | IC50 [3] | IC50 [4] | Ki [4] | IC50 [5] | IC50 [6] | Ki [6] | IC50 [7] | IC50 [8] | IC50 [9] | Ki [9] | IC50 [10] | IC50 [11] | IC50 [12] | IC50 [13] | Ki [13]
